The source of these data is publication PMC9837035 (Nature Communications, 2023).

The term pIC50 denotes −log10 of the IC50, conventionally taken in molar units.

One experiment deals with T1, NSD1 (Homo sapiens, UniProt Q96L73).
T1 construct: purchased Reaction Biology
Nature of the experiment: Radioisotope-based methyltransferase assay (selectivity). Format: biochemical.

In another experiment the target is T2, GLP (Homo sapiens, UniProt Q9H9B1).
T2 sequence (Q9H9B1 1-1298): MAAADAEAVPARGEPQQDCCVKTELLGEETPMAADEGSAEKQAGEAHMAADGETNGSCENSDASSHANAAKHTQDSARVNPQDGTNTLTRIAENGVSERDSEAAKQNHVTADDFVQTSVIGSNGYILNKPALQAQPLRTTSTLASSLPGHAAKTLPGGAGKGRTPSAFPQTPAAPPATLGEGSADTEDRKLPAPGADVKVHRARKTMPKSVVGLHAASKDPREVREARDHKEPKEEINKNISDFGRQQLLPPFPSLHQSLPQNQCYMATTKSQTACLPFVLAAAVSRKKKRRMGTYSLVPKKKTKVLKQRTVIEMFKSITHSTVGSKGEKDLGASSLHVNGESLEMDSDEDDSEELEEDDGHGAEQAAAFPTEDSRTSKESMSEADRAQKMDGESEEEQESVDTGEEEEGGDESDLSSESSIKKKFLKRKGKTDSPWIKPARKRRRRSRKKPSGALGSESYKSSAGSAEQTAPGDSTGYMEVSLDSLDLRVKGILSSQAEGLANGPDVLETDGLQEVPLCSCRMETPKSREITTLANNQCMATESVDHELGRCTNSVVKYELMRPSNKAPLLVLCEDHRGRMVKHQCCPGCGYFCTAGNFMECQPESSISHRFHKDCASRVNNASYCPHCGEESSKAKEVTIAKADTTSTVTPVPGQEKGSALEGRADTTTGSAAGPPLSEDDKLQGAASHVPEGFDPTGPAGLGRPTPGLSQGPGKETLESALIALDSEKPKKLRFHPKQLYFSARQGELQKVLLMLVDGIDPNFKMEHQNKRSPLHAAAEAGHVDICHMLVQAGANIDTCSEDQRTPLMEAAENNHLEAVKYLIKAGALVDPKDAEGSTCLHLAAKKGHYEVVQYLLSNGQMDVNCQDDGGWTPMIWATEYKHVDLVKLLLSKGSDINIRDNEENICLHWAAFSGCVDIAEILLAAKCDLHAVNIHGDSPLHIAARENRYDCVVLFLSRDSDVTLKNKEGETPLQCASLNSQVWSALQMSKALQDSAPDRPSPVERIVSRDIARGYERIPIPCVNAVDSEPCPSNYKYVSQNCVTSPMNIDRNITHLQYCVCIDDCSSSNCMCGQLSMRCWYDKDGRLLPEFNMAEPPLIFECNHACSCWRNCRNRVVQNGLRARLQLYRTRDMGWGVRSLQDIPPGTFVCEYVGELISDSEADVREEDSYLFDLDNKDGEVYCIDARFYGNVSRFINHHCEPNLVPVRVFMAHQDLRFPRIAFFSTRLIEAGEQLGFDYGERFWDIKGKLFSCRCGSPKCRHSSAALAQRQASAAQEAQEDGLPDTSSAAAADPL
The experiment in a line: biochemical.

The subject of experiment [1] is ZBTB7A occupancy at the β-globin locus. Nature of the experiment: ChIP-qPCR with antibody against ZBTB7A in HUDEP-2 cells. Type of experiment: cell-based, human. The arrangement: ChIP-qPCR, antibody against ZBTB7A: scale not given here. The settings on record: for occupancy of ZBTB7A: HUDEP-2, 4 days. As to the method: A total of 0.5–1 × 10^6 cells were cross-linked with 1% formaldehyde for 10 min at room temperature and the reaction was quenched with 250 mM glycine. Cross-linked cells were then lysed with buffer 1 (15 mM Tris-HCl (pH 7.5), 60 mM KCl, 15 mM NaCl, 5 mM MgCl2, 0.1 mM EGTA, 300 mM sucrose, […], 1 mM phenylmethanesulfonyl fluoride (PMSF), 0.5% NP40) and incubated on ice for 10 min. After centrifugation, the pellet was re-suspended in buffer 2 (15 mM Tris-HCl (pH 7.5), 60 mM KCl, 15 mM NaCl, 5 mM MgCl2, 0.1 mM EGTA, 1.2 M sucrose, […], 1 mM PMSF). After centrifugation, the pellet was then re-suspended in MNase buffer (50 mM Tris-HCl (pH 7.5), 1 mM CaCl2, 4 mM MgCl2, 320 mM sucrose, 1 mM PMSF) and digested with 100 U of micrococcal nuclease (Takara) at 37 °C for 15 min. After the reaction was quenched with 20 mM EDTA, the supernatants were incubated with antibodies (anti-H3K9me2 (1:100), Abcam, ab1220; anti-H3K9ac (1:100), Active Motif, 39917; Goat anti-IgG (H + L) (1:100), Jackson Immunoresearch; anti-BCL11A (1:100), Novus Biologicals, NB600-261; anti-ZBTB7A (1:100), Thermo Fisher Scientific, eBioscience (13E9); anti-CHD3 (1:100), Novus Biologicals, NB-100-60412; anti-CHD4 (1:100), abcam, ab240640) and Protein A/G PLUS-Agarose (Santa Cruz Biotechnology) overnight at 4 °C. Beads were washed sequentially once with the following buffers: wash buffer A (50 mM Tris-HCl (pH 7.5), 75 mM NaCl, 10 mM EDTA, 0.01% NP40), wash buffer B (50 mM Tris-HCl (pH 7.5), 100 mM NaCl, 10 mM EDTA, 0.01% NP40), wash buffer C (50 mM Tris-HCl (pH 7.5), 175 mM NaCl, 10 mM EDTA, 0.01% NP40). After treatment with proteinase K in buffer 4 (20 mM Tris-HCl (pH 8.0), 10 mM EDTA, 400 mM NaCl, 0.5% SDS) at 56 °C overnight, DNA was purified using the FastGene Gel/PCR Extraction Kit (Nippon Genetics). The samples were analyzed by qPCR. Primers are listed in Supplementary Table 10. ChIP-seq experiments were performed by GENEWIZ. Tracks were visualized using the integrative genome viewer. ChIP-seq analysis were analyzed Cutadapt (V1.9.1) for QC, FastQC (V0.10.1) for QC assessment, Bowtie (V2.1.0) for mapping, strand cross-correlation (SCC) for ChIP quality assessment, MACS2 for peak calling, and R package ChIPpeakAnno for Peak annotated.

pIC50: −log10 of the molar value. “And” between values parts separate entries of the source, which are not always exact repeats. Equal values may be shown once.

T1 sequence (Q96L73 whole entry): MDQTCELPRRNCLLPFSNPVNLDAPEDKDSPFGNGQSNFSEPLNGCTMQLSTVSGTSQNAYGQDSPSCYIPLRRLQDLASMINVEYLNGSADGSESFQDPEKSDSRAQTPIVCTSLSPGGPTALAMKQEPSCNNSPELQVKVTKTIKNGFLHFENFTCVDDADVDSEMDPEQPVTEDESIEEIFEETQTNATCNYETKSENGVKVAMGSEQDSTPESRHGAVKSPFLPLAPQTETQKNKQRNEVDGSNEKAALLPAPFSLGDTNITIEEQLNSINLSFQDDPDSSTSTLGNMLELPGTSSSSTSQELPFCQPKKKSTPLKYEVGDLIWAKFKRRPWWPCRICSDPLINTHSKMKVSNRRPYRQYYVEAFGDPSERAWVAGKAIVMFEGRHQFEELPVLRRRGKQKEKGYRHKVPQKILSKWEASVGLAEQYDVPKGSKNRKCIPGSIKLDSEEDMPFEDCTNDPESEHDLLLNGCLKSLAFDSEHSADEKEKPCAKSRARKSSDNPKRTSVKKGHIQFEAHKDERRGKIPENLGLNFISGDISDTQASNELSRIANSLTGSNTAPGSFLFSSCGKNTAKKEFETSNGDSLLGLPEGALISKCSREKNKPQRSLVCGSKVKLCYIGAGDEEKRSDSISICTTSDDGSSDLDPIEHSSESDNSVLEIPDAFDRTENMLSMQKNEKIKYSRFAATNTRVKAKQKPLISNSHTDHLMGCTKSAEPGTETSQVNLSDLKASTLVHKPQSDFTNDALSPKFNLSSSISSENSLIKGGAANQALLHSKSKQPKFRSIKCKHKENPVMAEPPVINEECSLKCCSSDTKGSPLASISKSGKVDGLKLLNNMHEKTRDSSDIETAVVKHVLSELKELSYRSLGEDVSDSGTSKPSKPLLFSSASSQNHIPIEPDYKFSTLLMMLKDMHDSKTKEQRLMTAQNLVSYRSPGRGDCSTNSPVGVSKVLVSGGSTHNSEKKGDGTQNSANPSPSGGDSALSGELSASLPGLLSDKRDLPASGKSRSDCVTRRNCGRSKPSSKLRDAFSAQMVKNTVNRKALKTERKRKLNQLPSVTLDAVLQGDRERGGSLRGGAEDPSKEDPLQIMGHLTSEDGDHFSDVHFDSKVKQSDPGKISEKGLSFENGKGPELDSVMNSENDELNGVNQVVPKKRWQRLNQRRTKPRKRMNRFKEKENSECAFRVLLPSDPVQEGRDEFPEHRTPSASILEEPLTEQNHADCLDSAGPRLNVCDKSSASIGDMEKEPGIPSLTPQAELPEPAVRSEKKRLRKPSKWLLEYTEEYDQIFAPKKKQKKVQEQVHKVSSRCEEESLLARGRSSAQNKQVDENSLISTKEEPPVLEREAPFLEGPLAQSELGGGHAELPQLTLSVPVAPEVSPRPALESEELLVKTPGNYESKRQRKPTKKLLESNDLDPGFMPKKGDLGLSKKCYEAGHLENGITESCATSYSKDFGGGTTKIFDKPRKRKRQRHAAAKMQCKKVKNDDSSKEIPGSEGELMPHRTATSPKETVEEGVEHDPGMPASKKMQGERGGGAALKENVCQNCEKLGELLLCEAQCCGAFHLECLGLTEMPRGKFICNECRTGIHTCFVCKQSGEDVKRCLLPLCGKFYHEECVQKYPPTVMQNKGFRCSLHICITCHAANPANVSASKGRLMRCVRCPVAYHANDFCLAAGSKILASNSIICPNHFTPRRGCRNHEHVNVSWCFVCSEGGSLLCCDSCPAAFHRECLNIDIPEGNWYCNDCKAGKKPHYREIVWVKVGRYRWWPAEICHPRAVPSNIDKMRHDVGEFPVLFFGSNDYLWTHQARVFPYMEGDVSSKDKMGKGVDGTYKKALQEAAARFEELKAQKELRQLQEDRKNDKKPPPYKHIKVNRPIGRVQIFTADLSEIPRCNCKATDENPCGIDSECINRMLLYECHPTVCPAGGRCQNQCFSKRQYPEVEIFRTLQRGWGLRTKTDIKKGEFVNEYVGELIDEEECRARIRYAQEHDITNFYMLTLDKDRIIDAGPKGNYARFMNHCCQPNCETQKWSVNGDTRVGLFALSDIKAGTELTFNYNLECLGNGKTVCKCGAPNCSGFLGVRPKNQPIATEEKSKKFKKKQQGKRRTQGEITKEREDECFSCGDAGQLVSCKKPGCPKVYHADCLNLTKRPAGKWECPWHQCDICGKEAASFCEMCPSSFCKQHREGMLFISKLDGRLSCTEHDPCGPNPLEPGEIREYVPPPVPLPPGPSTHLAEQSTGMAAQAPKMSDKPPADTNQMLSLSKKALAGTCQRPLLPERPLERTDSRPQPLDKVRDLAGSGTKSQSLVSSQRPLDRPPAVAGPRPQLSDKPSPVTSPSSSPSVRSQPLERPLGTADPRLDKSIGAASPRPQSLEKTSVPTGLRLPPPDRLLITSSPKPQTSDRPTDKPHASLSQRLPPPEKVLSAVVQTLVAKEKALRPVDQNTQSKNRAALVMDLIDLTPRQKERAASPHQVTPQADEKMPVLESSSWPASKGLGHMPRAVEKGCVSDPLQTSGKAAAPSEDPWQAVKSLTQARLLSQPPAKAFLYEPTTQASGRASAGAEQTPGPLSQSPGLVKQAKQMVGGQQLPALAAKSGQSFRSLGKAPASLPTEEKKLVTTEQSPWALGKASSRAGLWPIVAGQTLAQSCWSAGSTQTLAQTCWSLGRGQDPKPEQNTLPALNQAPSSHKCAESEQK

Take `Nc1ncnc2c1ncn2[C@@H]1O[C@H](CSCC[C@H](N)C(=O)O)[C@@H](O)[C@H]1O` [SAH, S-(5'-Adenosyl)-L-homocysteine, reference compound]: the pIC50 against NSD1 (NSD1, 1 μM SAM) was 4.25; against NSD1 (NSD1, RK-701 in duplicate), 4.25; at GLP it was 5.41.

Take `NC(=O)NO` [Hydroxyurea, hydroxyurea]: the “ChIP-qPCR, antibody against ZBTB7A” value is 0.2555 and 0.2878 and 0.489 and 0.1677 and 0.3852 and 0.1554 in experiment [1] (BGLT3 locus, HUDEP-2 cells treated with hydroxyurea, replicates 1a-3b); 0.1321 and 0.1347 and 0.8135 and 0.9678 and 0.3385 and 0.3161 in experiment [1] (HS1, HUDEP-2 cells treated with hydroxyurea, replicates 1a-3b); 0.5755 and 1.852 and 0.7582 and 2.507 and 0.9285 and 0.344 in experiment [1] (HS2, HUDEP-2 cells treated with hydroxyurea, replicates 1a-3b); 3.3 and 2.712 and 3.199 and 3.147 and 3.201 and 2.452 in experiment [1] (HS3, HUDEP-2 cells treated with hydroxyurea, replicates 1a-3b); 0.5937 and 0.6906 and 0.5556 and 0.0004431 and 0.6456 and 0.709 in experiment [1] (HS4, HUDEP-2 cells treated with hydroxyurea, replicates 1a-3b); 0.3506 and 0.4318 and 0.349 and 0.2415 and 0.313 and 0.6542 in experiment [1] (β-globin promoter, HUDEP-2 cells treated with hydroxyurea, replicates 1a-3b). In addition, the “ChIP-qPCR, antibody against ZBTB7A” value in experiment [1] (γ-globin promoter, HUDEP-2 cells treated with hydroxyurea, replicates 1a-3b) is 0.3068 and 0.4102 and 0.3595 and 0.2786 and 0.238 and 0.2672; in experiment [1] (δ-globin promoter, HUDEP-2 cells treated with hydroxyurea, replicates 1a-3b) it was 0.2368 and 0.1088 and 0.2161 and 0.2308 and 0.337 and 0.2535. Further, the “occupancy of ZBTB7A” value in experiment [1] is on record as “unchanged”.

Consider `Cc1c(C(=O)NC(CCC2CC2)C(=O)Nc2ccc(C#N)cc2)[nH]c2c1C(=O)CC(C)(C)C2` (stereo not drawn) [RK-701], for which the pIC50 against NSD1 (NSD1, 1 μM SAM) was less than 4.00; against NSD1 (NSD1, RK-701 in duplicate), less than 4.00; against GLP, 7.31 and 7.24. Besides, the “ChIP-qPCR, antibody against ZBTB7A” value in experiment [1] (BGLT3 locus, HUDEP-2 cells treated with RK-701, replicates) is 0.4785 and 0.7839 and 0.6066 and 0.47 and 0.614 and 0.4023; in experiment [1] (HS1, HUDEP-2 cells treated with RK-701, replicates), 0.3678 and 0.05637 and 0.7128 and 0.4479 and 0.1475 and 0.1331; in experiment [1] (HS2, HUDEP-2 cells treated with RK-701, replicates) it was 1.5097 and 1.657 and 5.746 and 3.531 and 2.263 and 8.084 and 5.171; in experiment [1] (HS3, HUDEP-2 cells treated with RK-701, replicates), 0.5878 and 1.255 and 2.352 and 2.616 and 1.402 and 1.245 and 2.743; in experiment [1] (HS4, HUDEP-2 cells treated with RK-701, replicates) it was 0.4061 and 0.5382 and 0.8901 and 0.4009 and 0.2486; in experiment [1] (β-globin promoter, HUDEP-2 cells treated with RK-701, replicates), 0.04529 and 0.1645 and 0.1359 and 0.07664 and 0.1559 and 0.07017 and 0.04448 and 0.1674 and 0.1136. Besides, the “ChIP-qPCR, antibody against ZBTB7A” value in experiment [1] (γ-globin promoter, HUDEP-2 cells treated with RK-701, replicates) is 0.04733 and 0.01872 and 0.01192 and 0.1001 and 0.03782 and 0.06607 and 0.08612; in experiment [1] (δ-globin promoter, HUDEP-2 cells treated with RK-701, replicates), 0.02578 and 0.1044 and 0.02059 and 0.06153 and 0.0851 and 0.07628. The “occupancy of ZBTB7A” value in experiment [1] is given as “significantly reduced”.
